Measured values: PubChem BioAssay AID248 (DTP/NCI, 2004)
Several values for one entry are separate records, joined by “and”; a condition that tells them apart may be missing. Equal entries are not always repeated. Toxic doses and inconclusive results are not listed. Cut-off read from the data, not from the text of the source: active = T/C of 150% or more; inactive = T/C below 125%.

Tested on: L1210 leukemia ip in BDF1 mice, survival T/C
Assay: NCI In Vivo Anticancer Drug Screen. Data for tumor model L1210 Leukemia (intraperitoneal) in B6D2F1 (BDF1) mice
Details: endpoint: mean survival time, higher = longer survival
Method in brief: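 Ratio derived from survival: compound-dosed mice over vehicle-dosed mice, all bearing a transplantable tumor.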

[1] = dose: 50.0 mg/kg/injection, schedule: Q01DX001 (ip), vehicle: saline
[2] = dose: 100.0 mg/kg/injection, schedule: Q01DX001 (ip), vehicle: saline
[3] = dose: 200.0 mg/kg/injection, schedule: Q01DX001 (ip), vehicle: saline
[4] = dose: 100.0 mg/kg/injection, schedule: Q01DX009 (ip), vehicle: Klucel (hydroxypropylcellulose) (HPC)
[5] = dose: 200.0 mg/kg/injection, schedule: Q01DX009 (ip), vehicle: Klucel (hydroxypropylcellulose) (HPC)
[6] = dose: 25.0 mg/kg/injection, schedule: Q01DX009 (ip), vehicle: Klucel (hydroxypropylcellulose) (HPC)
[7] = dose: 50.0 mg/kg/injection, schedule: Q01DX009 (ip), vehicle: Klucel (hydroxypropylcellulose) (HPC)

Measured: T/C

CCC(C(=O)OC)C1CCN(C)C(=O)C12CO2 (configuration not stated)
inactive: dose: 25.0 mg/kg/injection, schedule: Q01DX001 (ip), vehicle: saline 93 % of control | dose: 25.0 mg/kg/injection, schedule: Q04DX003 (ip), vehicle: saline 95 % of control | dose: 25.0 mg/kg/injection, schedule: Q04DX003 (oral), vehicle: saline 100 % of control | [1] 104 % of control | dose: 50.0 mg/kg/injection, schedule: Q04DX003 (ip), vehicle: saline 95 % of control | dose: 50.0 mg/kg/injection, schedule: Q04DX003 (oral), vehicle: saline 98 % of control | [2] 97 % of control | dose: 100.0 mg/kg/injection, schedule: Q04DX003 (ip), vehicle: saline 97 % of control | dose: 100.0 mg/kg/injection, schedule: Q04DX003 (oral), vehicle: saline 96 % of control | [3] 103 % of control | dose: 200.0 mg/kg/injection, schedule: Q04DX003 (ip), vehicle: saline 97 % of control | dose: 200.0 mg/kg/injection, schedule: Q04DX003 (oral), vehicle: saline 107 % of control

OCC(O)C1OCOC2COCOC21 (configuration not stated)
inactive: dose: 222.0 mg/kg/injection, schedule: Q01DX Z (ip), vehicle: saline 98 % of control | dose: 333.0 mg/kg/injection, schedule: Q01DX Z (ip), vehicle: saline 117 % of control | dose: 500.0 mg/kg/injection, schedule: Q01DX Z (ip), vehicle: saline 105 % of control

CCCCCC(=N\N=C(N)N)/C(C)=N/N=C(N)N
inactive: dose: 7.5 mg/kg/injection, schedule: Q01DX Z (ip), vehicle: saline 106 % of control | dose: 15.0 mg/kg/injection, schedule: Q01DX Z (ip), vehicle: saline 111 % of control | dose: 30.0 mg/kg/injection, schedule: Q01DX Z (ip), vehicle: saline 93 % of control

CSCCC(NC(=O)COc1ccc(Cl)cc1Cl)C(=O)O (configuration not stated)
inactive: [4] 100 % of control | [5] 101 % of control | dose: 400.0 mg/kg/injection, schedule: Q01DX009 (ip), vehicle: Klucel (hydroxypropylcellulose) (HPC) 108 % of control

NC(CCl)=NCC1CCCCCCC1
inactive: [6] 103 % of control | dose: 25.0 mg/kg/injection, schedule: Q04DX002 (ip), vehicle: Klucel (hydroxypropylcellulose) (HPC) 100 % of control | dose: 50.0 mg/kg/injection, schedule: Q04DX002 (ip), vehicle: Klucel (hydroxypropylcellulose) (HPC) 107 % of control | dose: 100.0 mg/kg/injection, schedule: Q04DX002 (ip), vehicle: Klucel (hydroxypropylcellulose) (HPC) 101 % of control and 89 % of control

OC(c1nc2ccc(Cl)cc2[nH]1)C(O)c1nc2ccc(Cl)cc2[nH]1 (configuration not stated)
inactive: dose: 75.0 mg/kg/injection, schedule: Q01DX001 (ip), vehicle: other 102 % of control | dose: 150.0 mg/kg/injection, schedule: Q01DX001 (ip), vehicle: other 96 % of control | dose: 300.0 mg/kg/injection, schedule: Q01DX001 (ip), vehicle: other 91 % of control

c1ccc2c(c1)ccn1cnnc21
inactive: [1] 97 % of control | [2] 101 % of control | [3] 109 % of control

NC(=S)Nc1c(Cl)cc(Cl)cc1Cl
inactive: [6] 94 % of control | [7] 108 % of control | [4] 94 % of control and 107 % of control

CC(C)CCCC(C)C1CCC2C3CC=C4CC(OC(=O)Nc5ccc(S(=O)(=O)NC6CCCCC6)cc5)CCC4(C)C3CCC12C (configuration not stated)
inactive: dose: 100.0 mg/kg/injection, schedule: Q01DX001 (sc), vehicle: steriod suspending solution 110 % of control | dose: 200.0 mg/kg/injection, schedule: Q01DX001 (sc), vehicle: steriod suspending solution 108 % of control | dose: 400.0 mg/kg/injection, schedule: Q01DX001 (sc), vehicle: steriod suspending solution 105 % of control

CC(C)OC(=S)Nc1ccccc1
inactive: [7] 102 % of control | dose: 100.0 mg/kg/injection, schedule: Q01DX001 (ip), vehicle: gum acacia 102 % of control | [4] 107 % of control | dose: 200.0 mg/kg/injection, schedule: Q01DX001 (ip), vehicle: gum acacia 98 % of control | [5] 98 % of control | dose: 400.0 mg/kg/injection, schedule: Q01DX001 (ip), vehicle: gum acacia 95 % of control

CC1(C)C(=NNC(N)=O)C(C)(C)C1=NNC(N)=O
inactive: [2] 96 % of control | dose: 100.0 mg/kg/injection, schedule: Q04DX003 (ip), vehicle: Klucel (hydroxypropylcellulose) (HPC) 91 % of control | [3] 94 % of control | dose: 400.0 mg/kg/injection, schedule: Q01DX001 (ip), vehicle: saline 90 % of control
